Reference: ChEMBL document CHEMBL1139020, “Aryl O- and S-galactosides and lactosides as specific inhibitors of human galectins-1 and -3: role of electrostatic potential at O-3” (Bioorg Med Chem Lett, 2006)

How the values were obtained:
[1] = target: Galectin-1 (Homo sapiens) (UniProt P09382); experiment: Inhibition of Galectin1
[2] = target: Galectin-3 (Homo sapiens) (UniProt P17931); experiment: Inhibition of Galectin3
Sequence of Galectin-3 (Homo sapiens) (P17931 whole entry): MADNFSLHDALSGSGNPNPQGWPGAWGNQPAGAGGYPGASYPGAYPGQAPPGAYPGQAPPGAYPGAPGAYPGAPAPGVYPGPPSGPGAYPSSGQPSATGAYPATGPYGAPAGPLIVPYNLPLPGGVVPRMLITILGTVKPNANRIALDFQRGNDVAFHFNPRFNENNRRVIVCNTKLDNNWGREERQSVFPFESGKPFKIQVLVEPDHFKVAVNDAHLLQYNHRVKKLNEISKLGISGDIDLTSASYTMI

Sequence of Galectin-1 (Homo sapiens) (P09382 whole entry): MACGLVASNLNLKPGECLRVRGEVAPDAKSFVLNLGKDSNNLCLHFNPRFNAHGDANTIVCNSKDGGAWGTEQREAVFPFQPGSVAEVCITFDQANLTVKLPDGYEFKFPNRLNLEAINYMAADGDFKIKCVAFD

Molecule	Activity [1]	Activity [2]
CC(=O)OC[C@H]1O[C@@H](Sc2ccc3ccccc3c2)[C@H](OC(C)=O)[C@@H](OC(C)=O)[C@@H]1O[C@@H]1O[C@H](CO)[C@H](O)[C@H](O)[C@H]1O	0.313 mM	0.313 mM
CC(=O)OC[C@H]1O[C@@H](Oc2ccc([N+](=O)[O-])cc2)[C@H](OC(C)=O)[C@@H](OC(C)=O)[C@H]1O	10 mM	10 mM
COc1ccc(S(=O)(=O)[C@@H]2O[C@H](CO)[C@H](O)[C@H](O)[C@H]2O)cc1	> 5 mM	> 5 mM
CC(=O)OC[C@H]1O[C@@H](Sc2ccc(Br)cc2)[C@H](OC(C)=O)[C@@H](OC(C)=O)[C@@H]1O[C@@H]1O[C@H](CO)[C@H](O)[C@H](O)[C@H]1O	0.313 mM	0.313 mM
CC(=O)OC[C@H]1O[C@@H](Oc2ccccc2[N+](=O)[O-])[C@H](OC(C)=O)[C@@H](OC(C)=O)[C@H]1O	> 5 mM	> 5 mM
COc1ccc(S[C@@H]2O[C@H](COC(C)=O)[C@@H](O[C@@H]3O[C@H](CO)[C@H](O)[C@H](O)[C@H]3O)[C@H](OC(C)=O)[C@H]2OC(C)=O)cc1	0.313 mM	0.313 mM
LACTOSE, ANHYDROUS	0.8 mM	0.8 mM
O=S(=O)(c1ccc2ccccc2c1)[C@@H]1O[C@H](CO)[C@@H](O[C@@H]2O[C@H](CO)[C@H](O)[C@H](O)[C@H]2O)[C@H](O)[C@H]1O	0.04 mM	0.313 mM
CC(=O)OC[C@H]1O[C@@H](Oc2ccccc2[N+](=O)[O-])[C@H](OC(C)=O)[C@@H](OC(C)=O)[C@@H]1O[C@@H]1O[C@H](CO)[C@H](O)[C@H](O)[C@H]1O	0.08 mM	0.625 mM
COc1ccc(S[C@@H]2O[C@H](COC(C)=O)[C@H](O)[C@H](OC(C)=O)[C@H]2OC(C)=O)cc1	> 5 mM	2.5 mM
CC(=O)OC[C@H]1O[C@@H](Oc2ccc([N+](=O)[O-])cc2)[C@H](OC(C)=O)[C@@H](OC(C)=O)[C@@H]1O[C@@H]1O[C@H](CO)[C@H](O)[C@H](O)[C@H]1O	0.313 mM	0.625 mM
CC(=O)OC[C@H]1O[C@@H](Sc2ccc3ccccc3c2)[C@H](OC(C)=O)[C@@H](OC(C)=O)[C@H]1O	5 mM	5 mM
O=S(=O)(c1ccc(Br)cc1)[C@@H]1O[C@H](CO)[C@@H](O[C@@H]2O[C@H](CO)[C@H](O)[C@H](O)[C@H]2O)[C@H](O)[C@H]1O	0.313 mM	0.313 mM
O=C[C@H](O)[C@@H](O)[C@@H](O)[C@H](O)CO	50 mM	50 mM
CC(=O)OC[C@H]1O[C@@H](Sc2ccc([N+](=O)[O-])cc2)[C@H](OC(C)=O)[C@@H](OC(C)=O)[C@@H]1O[C@@H]1O[C@H](CO)[C@H](O)[C@H](O)[C@H]1O	0.313 mM	0.313 mM
CC(=O)OC[C@H]1O[C@@H](Sc2ccc([N+](=O)[O-])cc2)[C@H](OC(C)=O)[C@@H](OC(C)=O)[C@H]1O	2.5 mM	> 5 mM
